Test results taken from patent publication US11911397B2, “Anordrin compositions and methods for treating diseases” (Zhejiang Jiachi Development Pharmaceuticals LTD, priority 2014, dated 2024).

Legend:
[1] = test system: 8S and 4S estrogen-binding complexes in uterine cytosol; conditions: cited from earlier work
[2] = test system: ovariectomized (OVX) mice; assay: ovariectomized (OVX) mice model; format: in vivo; conditions: for fat deposits in paraffin sections of liver / body mass / total cholesterol (TC) in liver / triglyceride (TG) in liver: OVX mice; for body mass: after 6 weeks, intragastric; for total cholesterol (TC) in liver / triglyceride (TG) in liver: compared to controls
MDA-MB-231 cells [3] = assay: MDA-MB-231 cell growth, cell counting; format: cell-based; conditions: 6 μM anordrin
Ishikawa cells = assay: Ishikawa cell proliferation; format: cell-based
[4] = biological target: T1, ER-α ligand binding domain (GST-ER-α-LBD) (Homo sapiens, UniProt P03372); assay: 3H-E2 competition assay on GST-ER-α-LBD beads; conditions: for blocking of [H^3-E2] binding to GST-ER-α-LBD on beads: 50 nM, 0.5 nM [H^3-E2], 1 μg GST-ER-α-LBD
T1 construct: made in house; host or cells: E. coli
T1 sequence (P03372 311-547 limits assumed): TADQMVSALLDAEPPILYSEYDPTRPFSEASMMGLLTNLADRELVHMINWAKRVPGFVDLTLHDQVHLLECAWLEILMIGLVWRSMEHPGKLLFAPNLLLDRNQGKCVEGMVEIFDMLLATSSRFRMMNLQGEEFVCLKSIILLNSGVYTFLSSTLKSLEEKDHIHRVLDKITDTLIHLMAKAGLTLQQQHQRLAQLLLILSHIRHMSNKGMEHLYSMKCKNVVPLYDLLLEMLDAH

MCF-7 cells [5] = assay: MCF-7 cell growth, cell counting; format: cell-based
Experimental: To test this hypothesis we induced MCF-7 cells in IL-free medium for two months. Drug sensitivity of cell growth was tested by counting the cell number after 144 h of inoculation (FIG. 13A).

[6] = test system: integrin β1 in MCF-7 cells; assay: integrin β1 cell surface distribution and expression in MCF-7 cells; format: cell-based; conditions: 6 μM
Experimental: (§1) MCF-7 cells were harvested and lysed in RIPA buffer. 40 μg total protein of cellular lysate was used for Western blotting to determinate the expression level of integrin β1.
(§2) Integrin translocation to the cell surface is regulated by the p130Cas scaffold protein complex to play a fundamental role in cell attachment and migration. Integrin α3β1 has been reported to be involved in MCF-7 cell attachment as well as MDA-MB-231 cell migration (25, 26). […] To verify the hypothesis, we treated MCF-7 and MDA-MB-231 cells with 6 μM anordrin for 16 hours and measured cell surface integrin β1 distribution using a FITC-labeled anti-integrin β1 antibody. […] Taken together, we conclude that anordrin or analog thereof (such as […]) binds to membrane-associated ER to inhibit cell migration and proliferation.
(§3) Transwell and flow cytometry assay: Cells were starved for 48 hours in phenol red free medium containing 5% charcoal-stripped FBS, and then changed into phenol red free medium for an additional 24 hours. Transwell was performed following the Chemicon kit instructions (CAT #ECM551). Briefly, cells were trypsinized, washed using 1×DPBS containing Ca2+ and Mg2+ (Sigma) and resuspensed in serum and phenol red free medium at a cell density of 0.5×10^6 cells/ml. […]

[7] = test system: ERK phosphorylation in HepG2 cells; assay: phosphorylation of ERK in HepG2 cells; format: cell-based; conditions: non-monotonic dose response
normal mice = normal mice treated with tamoxifen, anordrin or both
MDA-MB-231 cells [8] = assay: MDA-MB-231 cell migration (matrixgel / transwell); format: cell-based; conditions: 6 μM anordrin
Experimental: As anordrin has been reported as an anti-angiogenic agent resulting in inhibition of cell migration and invasion (16), we studied its ability to modulate MDA-MB-231 cell migration using matrixgel. […] After 20 hours migrated cells were stained and quantified using a plate reader at 560 nm.

ER-β = biological target: T2, ER-β (Homo sapiens, UniProt Q92731); assay: 3H-E2 binding to ER-β fusion protein expressed in HEK-293 cells; conditions: 100 nM anordrin, 1 nM 3H-E2, HEK-293 lysate
T2 construct: expressed in transfected cells; host or cells: HEK-293
Experimental: (§4) Binding and competition assays: GST and GST-ER-α fusion proteins were expressed in E. coli and purified using glutathione beads. 2 μg/ml GST (40-80 nM) fusion proteins in 1 ml TE buffer was mixed with 1 nM ^3H-E2 at 4° C. for 2 h. Radioactivity on beads was measured using a GM meter. HEK-293 cells were transfected to express GST fusion proteins of ER-β or GPER1. Cells were lysed in 1×TE buffer containing protease inhibitor cocktail (sigma) on ice for 30 min, 80% glycerol was added to reach 20% glycerol. Tubes were centrifuged at 300 g for 5 min and supernatant was collected. Protein concentration was measured by Bio-rad protein concentration assay kit. 100 nM anordrin and 1 nM^3H-E2 was added to 1 ml lysate (5 mg/ml total protein) at 4° C. for 2 h. Radioactivity on beads was measured using GM meter.

[9] = test system: patients whose cancers were potentially caused by EGF/Her1; conditions: patients who failed to be inhibited by an EGF competitor; cited from earlier work
[10] = test system: integrin β1 in MDA-MB-231 cells; assay: integrin β1 cell surface distribution and expression in MDA-MB-231 cells; format: cell-based; conditions: 6 μM
Experimental: as §1, §2, §3

ER-α-36 = biological target: T3, ER-α-36 (Homo sapiens, UniProt P03372); assay: 3H-E2 binding to ER-α-36 expressed in HEK-293 cells; conditions: blocking at low, facilitating at higher concentrations
T3 construct: expressed in transfected cells; host or cells: HEK-293
From the text: MIESs effect their regulation of cell proliferation, migration, cell-cell junction and matrix, and energy metabolism through a series of scaffold protein complexes. ER-α association with the plasma membrane is facilitated by palmitoylation at residue C447 in the LBD. […] To verify this, we measured the binding affinity of 3H-E2 with GST-ER-α-36 expressed and purified from E. coli. […] In contrast, 3H-E2 does bind to GST-ER-α-46, which has a full length ER-α-LBD.
Isolation of microsome and Drug competition assay: Cells were harvested and lysed in TE buffer (50 mM Tris (pH8.0), 5 mM EDTA, 2 mM PMSF and protease inhibitor cocktail (Sigma)) for 30 min with vortexing every 5 min. 80% glycerol in TE buffer was added to cell lysates to reach 20% and centrifuged at 800 g for 5 min. The supernatant was transferred to new tubes and total protein concentration was adjusted to 5 mg/ml. Drugs and ^3H-E2 were added to 1 ml protein solution and incubated at 4° C. for 2 hours. Microsome was precipitated at 25 krpm for 2 hours. Bound ^3H-E2 was measured using GM meter.

HepG2 cells = assay: HepG2 cell growth; format: cell-based
Hec1A cells = assay: Hec1A cell proliferation; format: cell-based
T47D cells = assay: EGF-induced T47D cell growth; format: cell-based; conditions: 7.5 μM, 10 ng/ml EGF
MCF-7 cells [11] = assay: 2-NBDG glucose uptake and cellular ATP in MCF-7 cells; format: cell-based
Experimental: Glucose uptake was measured using fluorescently labeled glucose (2-NBDG), and ATP concentrations were measured using an ATP analysis kit.

db/db mice = assay: blood glucose in db/db mice; format: in vivo
[12] = test system: BRCA1, ApoD, COX7a mRNA in MCF-7 cells; assay: RT-qPCR of genes regulated by the estrogen classic pathway in MCF-7 cells; format: cell-based; conditions: for expression of ApoD: FIG. 13B
[13] = test system: endometrial epithelial cells; assay: endometrial epithelial cells in mice (histology); conditions: for endometrial epithelial cell proliferation: monolayer vs polylayer
From the text: Preparation of paraffin sections and HE staining: The tissue of mice was excised by surgery and fixed using 2.5% formaldehyde in 1×PBS.

GPER1 = biological target: T4, GPER1 (Homo sapiens, UniProt Q99527); assay: 3H-E2 binding to GPER1 fusion protein expressed in HEK-293 cells; conditions: 100 nM anordrin, 1 nM 3H-E2, HEK-293 lysate
T4 construct: expressed in transfected cells; host or cells: HEK-293
Experimental: as §4

MCF-7 cells [14] = assay: glucose consumption and medium pH of MCF-7 cells; format: cell-based; conditions: for glucose concentration of media / glucose consumption: 60 hours
[15] = test system: Bcl-2 expression in MCF-7 cells; assay: Bcl-2 expression in MCF-7 cells (western blotting, RT-qPCR); format: cell-based; conditions: for increase of Bcl-2 mRNA transcription: 6 μM dinordrin, RT-qPCR
[16] = anordrin 0.45 μg/g in combination with tamoxifen 4.5 μg/g per day
[17] = charcoal-stripped FBS in phenol red free DMEM
[18] = tamoxifen 4.5 μg/g body mass per day, 9 weeks

T2 sequence (Q92731 whole entry, species assumed, the tested form may be a part): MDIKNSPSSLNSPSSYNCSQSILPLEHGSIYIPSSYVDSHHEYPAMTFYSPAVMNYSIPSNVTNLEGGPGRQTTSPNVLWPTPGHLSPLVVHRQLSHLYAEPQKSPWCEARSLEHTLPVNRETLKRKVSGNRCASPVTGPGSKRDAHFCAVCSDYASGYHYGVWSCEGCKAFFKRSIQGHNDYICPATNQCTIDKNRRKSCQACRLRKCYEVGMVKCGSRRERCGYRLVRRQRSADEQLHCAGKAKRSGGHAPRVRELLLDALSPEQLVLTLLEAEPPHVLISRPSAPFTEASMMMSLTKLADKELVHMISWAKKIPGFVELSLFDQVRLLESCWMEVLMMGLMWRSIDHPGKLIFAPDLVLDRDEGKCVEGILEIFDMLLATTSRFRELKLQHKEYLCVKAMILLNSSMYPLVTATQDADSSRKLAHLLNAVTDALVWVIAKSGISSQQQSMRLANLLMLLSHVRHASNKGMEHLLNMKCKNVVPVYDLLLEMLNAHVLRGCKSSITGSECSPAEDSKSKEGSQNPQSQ
T4 sequence (Q99527 whole entry, species assumed, the tested form may be a part): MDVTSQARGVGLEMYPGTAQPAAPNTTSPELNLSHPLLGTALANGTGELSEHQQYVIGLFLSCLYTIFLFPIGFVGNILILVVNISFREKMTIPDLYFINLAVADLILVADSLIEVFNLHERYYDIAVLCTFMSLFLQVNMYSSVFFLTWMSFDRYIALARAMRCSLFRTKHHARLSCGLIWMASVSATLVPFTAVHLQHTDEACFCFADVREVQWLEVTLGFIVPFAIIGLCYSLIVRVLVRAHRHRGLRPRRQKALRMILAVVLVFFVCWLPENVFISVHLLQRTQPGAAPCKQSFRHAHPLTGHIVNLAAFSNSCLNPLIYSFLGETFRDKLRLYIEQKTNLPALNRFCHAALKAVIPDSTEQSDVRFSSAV
T3 sequence (P03372 1-310 isoform P03372-4): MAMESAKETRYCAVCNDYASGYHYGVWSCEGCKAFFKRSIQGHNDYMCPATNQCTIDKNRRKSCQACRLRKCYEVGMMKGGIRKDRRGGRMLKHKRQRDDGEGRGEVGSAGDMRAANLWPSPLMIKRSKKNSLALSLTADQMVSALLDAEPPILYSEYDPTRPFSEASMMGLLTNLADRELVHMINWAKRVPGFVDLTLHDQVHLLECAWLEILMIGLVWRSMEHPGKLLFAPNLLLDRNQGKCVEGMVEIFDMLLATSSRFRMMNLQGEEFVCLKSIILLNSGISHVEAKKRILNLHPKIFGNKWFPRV

Structure (SMILES): C#C[C@@]1(O)C[C@@H]2CC[C@@H]3[C@H](CC[C@@]4(C)[C@H]3CC[C@@]4(O)C#C)[C@@]2(C)C1 [Anordiol, 2β,7α-diethyl-A-nor-5α-androstane-2α,17β-diol]
- binding to estrogen-binding complexes 4S and 8S [1]: preferentially bind the 8S complex

Structure (SMILES): C[C@]12CC[C@@H]3c4ccc(O)cc4CC[C@H]3[C@@H]1CC[C@@H]2O [E2, 17-beta estradiol]
- fat deposits in paraffin sections of liver [2]: smaller fat deposits
- body mass [2]: remained unchanged
- total cholesterol (TC) in liver [2]: decreased amounts
- triglyceride (TG) in liver [2]: decreased amounts

Structure (SMILES): C#C[C@@]1(OC(=O)CC)C[C@@H]2CC[C@@H]3[C@H](CC[C@@]4(C)[C@H]3CC[C@]4(C#C)OC(=O)CC)[C@@]2(C)C1 [anordrin, 2α,17α-diethynyl-A-nor-5α-androstane-2β,17β-diol dipropionate]
- MDA-MB-231 cell growth (MDA-MB-231 cells [3]): inhibits MDA-MB-231 cell growth significantly
- doses inhibiting proliferation (Ishikawa cells): 2 to 8 µM
- inhibition of 3H-E2 binding to GST-ER-α-LBD ([4]; 50 nM compound, 0.5 nM 3H-E2, 2 μg GST-ER-α-LBD): could not inhibit
- blocking of [H^3-E2] binding to GST-ER-α-LBD on beads [4]: no inhibition
- effect on the ability of tamoxifen to inhibit MCF-7 cell growth (MCF-7 cells [5]; 200 nM anordrin in the culture medium): did not affect
- inhibition at 7.5 µM (MCF-7 cells [5]; Homo sapiens, MCF7, 7.5 μM): > 50%
- expression level of integrin β1 [6]: did not affect
- integrin β1 distribution to the plasma membrane ([6]; 16 hours): down-regulated
- concentration of maximal phosphorylation of ERK [7]: 10 µM
- tamoxifen-induced NASH syndrome phenotype (normal mice; [16]): completely reversed
- tamoxifen-induced body weight phenotype (normal mice; [16]): completely reversed
- tamoxifen-induced liver TG phenotype (normal mice; [16]): completely reversed
- increased serum TG levels induced by tamoxifen (normal mice; mice): reverse
- increased serum viscosity induced by tamoxifen (normal mice; mice): reverse
- tamoxifen-induced uterine and vaginal atrophy (normal mice; tamoxifen treated mice): decrease the extent
- MDA-MB-231 cell migration in medium containing E2 (MDA-MB-231 cells [8]; 10 nM E2): significantly inhibited
- MDA-MB-231 cell migration in medium containing EGF (MDA-MB-231 cells [8]; 10 ng/ml EGF): significantly inhibited
- fat deposits in paraffin sections of liver [2]: smaller fat deposits
- body mass [2]: remained unchanged
- total cholesterol (TC) in liver [2]: decreased amounts
- triglyceride (TG) in liver [2]: decreased amounts
- bone marrow cells ([2]; ovariectomized mice): prevent decrease
- serum Ca^2+ ([2]; ovariectomized mice): increased
- serum Pi ([2]; ovariectomized mice): decreased
- uterine atrophy ([2]; ovariectomized mice): prevent uterine atrophy
- bone density ([2]; ovariectomized mice, micro-CT): increased
- 3H-E2 binding to ER-β fusion protein (ER-β): inhibits
- quality of life and lifespan of patients [9]: improve the quality of life and increase the lifespan
- expression level of integrin β1 [10]: did not affect
- integrin β1 distribution to the plasma membrane ([10]; 16 hours): down-regulated
- effect on 3H-E2 binding to ER-α-36 (ER-α-36): biphasic effect
- concentration showing the greatest degree of inhibition of cell growth (HepG2 cells): around 7 μM
- shape of dose response of cell growth inhibition (HepG2 cells): biphasic dose response
- doses inhibiting proliferation (Hec1A cells): 2 to 8 µM
- EGF-induced cell growth (T47D cells): blocked the increase in cell growth
- 2-NBDG uptake (MCF-7 cells [11]): enhanced
- cellular ATP concentrations (MCF-7 cells [11]): enhanced
- whole blood glucose / glucose consumption (db/db mice; female db/db mice, 0.45 μg/g body mass daily, 4 weeks): improved glucose consumption
- glucose consumption (db/db mice; male db/db mice, data not shown): no affect
- mRNA level of BRCA1 [12]: did not significantly affect
- hypertrophy of endometrial epithelial cells [13]: causes hypertrophy
- endometrial epithelial cell proliferation [13]: does not induce
- 3H-E2 binding to GPER1 fusion protein (GPER1): inhibits
- effect on tamoxifen inhibition of glucose metabolism (MCF-7 cells [14]; 200 nM anordrin with 1 μM tamoxifen, MCF-7, 60 hours): reversed the inhibitory effect
- pH of culture medium (MCF-7 cells [14]; MCF-7 cells): decreased pH
- glucose concentration of media / glucose consumption (MCF-7 cells [14]; MCF-7 cells): lower
- increase of Bcl-2 mRNA transcription [15]: 3.18%±3.22%
- Bcl-2 mRNA expression ([15]; 7.5 μM, data not shown): not affected
- Bcl-2 protein expression ([15]; 7.5 μM, western blotting): not affected
- Bcl-2 protein expression [15, 17]: Neither tamoxifen nor anordrin or analog thereof (such as anordrin) were found to affect Bcl-2 protein expression

Structure (SMILES): C#C[C@@]1(OC(=O)CC)C[C@@H]2CC[C@@H]3[C@H](CC[C@@]4(C)[C@H]3CC[C@]4(C#C)OC(=O)CC)[C@H]2C1 [dinordrin]
- blocking of [H^3-E2] binding to GST-ER-α-LBD on beads [4]: 63.2±5.7%
- increase of Bcl-2 mRNA transcription [15]: 147.2%±22.73%

Structure (SMILES): CC(C)Oc1ccc2c(=O)c(-c3ccccc3)coc2c1 [ipriflavone]
- body mass [2]: increased
- total cholesterol (TC) in liver [2]: no change
- triglyceride (TG) in liver [2]: no change

Structure (SMILES): O=C(c1ccc(OCCN2CCCCC2)cc1)c1c(-c2ccc(O)cc2)sc2cc(O)ccc12 [raloxifene]
- expression of ApoD [12]: enhance expression of ApoD

Structure (SMILES): CC/C(=C(\c1ccccc1)c1ccc(OCCN(C)C)cc1)c1ccccc1 [tamoxifen]
- MDA-MB-231 cell growth (MDA-MB-231 cells [3]): no effect
- indicators of NASH syndrome (normal mice; [18]): increased indicators of NASH syndrome
- liver TG levels (normal mice; [18]): increased
- body mass (normal mice; tamoxifen 4.5 μg/g body mass per day, 9 weeks, normal mice): increase in body mass
- mRNA level of BRCA1 [12]: significantly inhibited
- transcription of COX7a mRNA [12]: significantly inhibited
- expression of ApoD [12]: enhance expression of ApoD
- endometrial epithelial cell proliferation [13]: induce proliferation
- glucose concentration of media / glucose consumption (MCF-7 cells [14]; MCF-7 cells): inhibition
- binding to estrogen-binding complexes 4S and 8S [1]: bind both estrogen-binding complexes
- Bcl-2 protein expression ([15]; 7.5 μM, western blotting): inhibit Bcl-2 expression
- Bcl-2 protein expression [15, 17]: Neither tamoxifen nor anordrin or analog thereof (such as anordrin) were found to affect Bcl-2 protein expression
